Earlier results in patent US20240374540A1, “FORMULATIONS FOR THE TREATMENT OF OCULAR SURFACE DISEASES AND RELATED METHODS” (priority 2016, published 2024).

Test system: AQP5
Conditions: human airway epithelial cells (A459 cells)

Nc1c(Br)cc(Br)cc1CN[C@H]1CC[C@H](O)CC1 [ambroxol, Ambroxol]
expression of AQP5: stimulate the expression of AQP5
